Measurements published in patent publication EP1222921B1, “Pharmaceutical compositions of tizoxanide and/or nitazoxanide” (Romark Laboratories, L.C., priority 1997, dated 1998).
Converted amounts (≈) assume the structure as drawn. “Also recorded” adds a separate entry of the source. Read-outs that look alike come from different tables or passages of the source.

What was measured:
[1] = tested on: C. parvum oocysts; assay: Intact C. parvum oocyst assay (Example II), immunofluorescence; assay type: cell-based, Cryptosporidium parvum; conditions: 2 mg/ml; for inhibition at 2000 µg/mL: Cryptosporidium parvum, read-out: Percent Inhibition
Method: Nitazoxanide was dissolved in sterile dimethylsulfoxide (DMSO) and tested against intact C. parvum oocysts infected cell monolayers at concentrations of 100 µg/ml, 10 µg/ml/l µg/ml and 0.1 µg/ml. A second trail was performed which tested nitazoxanide at the additional concentrations of 20, 2, 0.2 and 0.02 µg/ml. These concentrations were achieved by serial dilutions with complete DMEM medium to yield a final DMSO concentration of 0.5%. The medium control also contacted 0.5% DMSO.
The experiment used a cell culture of MDBKF5D2 Cells grown in 7 mm chambers, and as Cryptosporidium parvum: GCH1 oocysts, 5 X 10^4 per well, and was conducted to compare paromomycin (positive control) against nitazoxanide (experimental drug). Materials included Immune Anti-Cryptosporidium parvum Sporozoite Rabbit Serum (0.1%) and Fluorescein-Conjugated Goat Anti-Rabbit Antibody (1%).
5 x 104 C. parvum oocysts per well were incubated in nitazoxanide (100, 20, 10, 2, 1, 0.2, 0.1 and 0.02 µg/ml) at 37°C (8% CO2) on confluent MDBKF5D2 cell monolayers. The level of infection in each well was determined and analyzed by an immunofluorescence assay at 24 to 48 hours. Percent Inhibition was calculated by subtracting the mean parasite count/10 field in the drug test wells from the mean parasite count/10 fields in the medium control (no drug), dividing by the medium control count, and then multiplying by 100. (Medium control count - Drug test count)/(Medium control count)x 100 [formula]

[2] = tested on: MDBKF5D2 cell monolayers; assay type: cell-based; conditions: cattle, 2 mg/ml
Method: The drug was incubated on the monolayers at 37°C and 8% CO2. At 24 hours (trial 1) and 48 hours (trial 2), MTS (Owen's solution) the PMS were added to each well at concentrations of 333 µg/ml and 25 µM respectively. The plate was returned to the incubator in the dark to develop for two hours. At two hours, 100 µl of each supernatant was transferred to a new microtiter plate and read in the ELISA reader at 490nm. Results were recorded and analyzed. Percent toxicity was calculated by subtracting the mean optical density (OD) of the drug supernatants from the mean optical density (OD) of the medium control supernatants (no drug), dividing by the OD of the medium control and multiplying by 100. (OD medium - OD drug)/(OD medium)x 100 [formula]

[3] = tested on: C. parvum oocysts; assay: Intact C. parvum oocyst assay (Example III), immunofluorescence; assay type: cell-based, Cryptosporidium parvum; conditions: for Parasite - Mean parasite count/field (12 fields analyzed) / %Inhib - Percent inhibitation of parasite infection: 48 hr.; for %Inhib - Percent inhibitation of parasite infection: listed as New NTZdes
Method: Each concentration of nitazoxanide and the media controls contained 0.025% DMSO as a constant. The experiment used a cell culture of MDBKF5D2 Cells grown in 7 mm chambers, and as Cryptosporidium parvum: GCH1 oocysts, 5 X 10^4 per well, and was conducted to compare paromomycin (positive control) against nitazoxanide (experimental drug). […] 5 x 104 C. parvum oocysts per well are incubated in the pre-mentioned concentrations of nitazoxanide at 37°C (8% CO2) on confluent MDBKF5D2 cell monolayers. The level of infection in each well was determined and computer analyzed by an immunofluorescence assay at 48 hours. […] (Medium control count - Drug test count)/(Medium control count)x 100 [formula] Conc. - µg/ml; Parasite - Mean parasite count/field (12 fields analyzed); %Inhib - Percent inhibitation of parasite infection; % Tox- Percent toxicity to cells by the drug.

[4] = tested on: MDBKF5D2 cell monolayers; assay: Toxicity testing assay (Example III), MTS/PMS; assay type: cell-based
Method: 200µl of medium containing nitazoxanide solution at the pre-mentioned concentrations and the proper controls were introduced into two wells of a 96 well plate containing confluent MDBKFD2 cell monolayers and two wells without monolayers. […] The plate was returned to the incubator in the dark to develop for 2 hours. At 2 hours, 100 µl of each supernatant was transferred to a new microtiter plate and read in the ELISA reader at 490 nm. Results were recorded and analyzed. […] (OD medium - OD drug x 100)/(OD medium) [formula] […]

[5] = tested on: RH strain of Toxoplasma gondii; assay: Toxoplasma gondii growth in MRC5 fibroblast cultures, ELISA; assay type: cell-based
[6] = tested on: M. intracellular ATCC 13950; assay: MIC by standard agar dilution; assay type: cell-based, Mycobacterium intracellular; conditions: Mycobacterium, ATCC13950, 504 h, Middlebrook 7H11 agar, 3 weeks
[7] = tested on: Fasciola hepatica; assay: In vitro culture of mature flukes
Method: The in vitro efficacy of nitazoxanide and desacetyl-nitazoxanide was tested against Fasciola hepatica. Mature F. hepatica were recovered from the bile ducts of 3 calf livers condemned due to fasciolosis at the Louisiana Veterinary Medical Diagnostic Laboratory at the Hardy's Meat […], Bunkie, LA. Flukes were washed in sterile saline for 1 hour and transferred to sterile saline or RPMI (pH 7.4) for an additional 3 hours. Flukes were then held in sterile RPMI-rabbit serum (50:50 v/v) or sterile RPMI (pH 7.4) overnight at 37°C with 5% CO2. In vitro culture (37°C, 5% CO2) was done according to a modification of the method of Ibarra and Jenkins ([…]. 70:655-661, 1984). […] Only flukes that had normal activity and morphology were used. […] Two control flukes were included in each replicate, […] and one in unmedicated culture media […]. Flukes were examined for the effects of drug treatment as evidenced by death, motility disturbances or morpholgic changes as compared to untreated control flukes, using a backlighted panel and a lighted 3X magnifying lens.

[8] = tested on: MRC5 fibroblasts; assay: Toxicity on the cell monolayer in T. gondii cultures; conditions: 72 hours
[9] = 48 hr., Conc 0.01 µg/ml, 0.025% DMSO
[10] = 48 hr., Conc 0.1 µg/ml, 0.025% DMSO
[11] = 48 hr., Conc 1 µg/ml, 0.025% DMSO
[12] = 48 hr., Conc 10 µg/ml, 0.025% DMSO

NC[C@@H]1O[C@H](O[C@H]2[C@@H](O)[C@H](O[C@@H]3[C@@H](O)[C@H](N)C[C@H](N)[C@H]3O[C@H]3O[C@H](CO)[C@@H](O)[C@H](O)[C@H]3N)O[C@@H]2CO)[C@H](N)[C@@H](O)[C@@H]1O [Paromomycin, reference compound]
inhibition at 2000 µg/mL ([1]; Trial 1: 24 hrs): 51%
inhibition at 2000 µg/mL ([1]; Trial 2: 48 hrs): 74%
Mean (+ SD) Parasite Count/10 Fields ([1]; Trial 1: 24 hrs): 482(±47.1)
Mean (+ SD) Parasite Count/10 Fields ([1]; Trial 2: 48 hrs): 580(+33.42)
Percent Toxicity ([2]; 24 h): 23.8%
Percent Toxicity ([2]; 48 h): 40.8%
Parasite - Mean parasite count/field (12 fields analyzed) ([3]; Conc 2000 µg/ml, aqueous media): 115.75
inhibition at 2000 µg/mL ([3]; Cryptosporidium parvum, 48 h, Conc 2000 µg/ml, aqueous media, read-out: %Inhib - Percent inhibitation of parasite infection): 83%
inhibition at 2000 µg/mL ([3]; Cryptosporidium parvum, concentration of 2,000 µg/ml, positive control, Examples II and III, read-out: inhibition (range over the experiments)): 51 to 83%
times less effective (than nitazoxanide) ([3]; same experimental condition, positive control): 2,000 times
%Tox - Percent toxicity to cells by the drug ([4]; cattle, 48 h, 2000 µg/ml): 39.79%
Tox/OD ([4]; cattle, 48 h, 2000 µg/ml): 1.219

O=C(Nc1ncc([N+](=O)[O-])s1)c1ccccc1O [Tizoxanide, desacetyl-nitazoxanide]
Parasite - Mean parasite count/field (12 fields analyzed) ([3]; Conc 0.01 µg/ml, 0.025% DMSO): 749.33
Parasite - Mean parasite count/field (12 fields analyzed) ([3]; Conc 0.1 µg/ml, 0.025% DMSO): 649.86
Parasite - Mean parasite count/field (12 fields analyzed) ([3]; Conc 1 µg/ml, 0.025% DMSO): 39.92
%Inhib - Percent inhibitation of parasite infection ([3]; Conc 1 µg/ml, 0.025% DMSO): 93.65%
Parasite - Mean parasite count/field (12 fields analyzed) ([3]; Conc 10 µg/ml, 0.025% DMSO): 13.75
%Inhib - Percent inhibitation of parasite infection ([3]; Conc 10 µg/ml, 0.025% DMSO): 97.81%
inhibition at 0.01 µg/mL ([3]; Cryptosporidium parvum, 48 h, Conc 0.01 µg/ml, 0.025% DMSO, read-out: %Inhib - Percent inhibitation of parasite infection): ≤ 0%
inhibition at 0.1 µg/mL ([3]; Cryptosporidium parvum, 48 h, Conc 0.1 µg/ml, 0.025% DMSO, read-out: %Inhib - Percent inhibitation of parasite infection): ≤ 0%
inhibition at 1 µg/mL ([3]; Cryptosporidium parvum, 48 h, Conc 1 µg/ml, 0.025% DMSO, read-out: %Inhib - Percent inhibitation of parasite infection): 94%
inhibition at 10 µg/mL ([3]; Cryptosporidium parvum, 48 h, Conc 10 µg/ml, 0.025% DMSO, read-out: %Inhib - Percent inhibitation of parasite infection): 98%
%Tox - Percent toxicity to cells by the drug [4, 9]: 4.36%
Score (cytotoxicity score) [4, 9]: 0 (0.5% toxicity = 0)
Tox/OD ([4]; 48 hr., Conc 0.01 µg/ml, 0.025% DMSO, OD at 490 nm): 1.721
%Tox - Percent toxicity to cells by the drug [4, 10]: 16.29%
Score (cytotoxicity score) [4, 10]: 1 (6-25% toxicity = 1)
Tox/OD ([4]; 48 hr., Conc 0.1 µg/ml, 0.025% DMSO, OD at 490 nm): 1.506
%Tox - Percent toxicity to cells by the drug [4, 11]: 4.97%
Score (cytotoxicity score) [4, 11]: 0 (0.5% toxicity = 0)
Tox/OD ([4]; 48 hr., Conc 1 µg/ml, 0.025% DMSO, OD at 490 nm): 1.710
%Tox - Percent toxicity to cells by the drug [4, 12]: 81.27%
Score (cytotoxicity score) [4, 12]: 4 (76-100% toxicity =- 4)
Tox/OD ([4]; 48 hr., Conc 10 µg/ml, 0.025% DMSO, OD at 490 nm): .337
concentration with significant effect (inhibition) ([5]; 72 hours): ≥ 0.6 mg/L
IC50 ([5]; Toxoplasma gondii, MRC5, 72 hours, estimated from regression analysis, read-out: 50% inhibitory concentration): 1.2 µg/mL (≈ 4.52 µM)
concentrations at which a marked inhibition of Toxoplasma growth could be observed ([5]; alteration of the parasitophorous vacuole, no marked alteration of the parasite itself): approximately 1.2 mg/L
MIC [6]: 4 µg/mL (≈ 15.1 µM)
effects on flukes (death, motility disturbances) ([7]; 1 µg treatment, listed as D-NTZ): Some slowing of activity was noted in the 1 µg group at 42-74 hours; also recorded: only 3 active and one moribund fluke remained alive at 91 hours; also recorded: at 115 hours only one sluggish fluke remained
effects on flukes (death, motility disturbances) ([7]; 3 µg treatment, listed as D-NTZ): Reduced activity in some individuals was seen by 24 hours in the 5 µg and 3 µg groups with a somewhat slower onset at 3 µg; also recorded: all were dead in the 3 and 5 µg treatment wells by 50 hours except one sluggish fluke in each group
effects on flukes (death, motility disturbances) ([7]; 5 µg treatment, listed as D-NTZ): Reduced activity in some individuals was seen by 24 hours; also recorded: all were dead in the 3 and 5 µg treatment wells by 50 hours except one sluggish fluke in each group
effects on flukes (death, motility disturbances) ([7]; 10 µg treatment, listed as D-NTZ): reduced activity was noted at 1, 3 and 4 hours; also recorded: all were moribund or dead by 7 hours
effects on flukes (death, motility disturbances) ([7]; 25 µg treatment, listed as D-NTZ): Four of 7 flukes in the 25 µg treatment were moribund, two were active, and one was sluggish within the first hour; also recorded: all were dead except two sluggish flukes by three hours; also recorded: only one sluggish fluke remained alive after four hours
effects on flukes (death, motility disturbances) ([7]; 50 µg treatment): moribund or dead within one hour
effects on flukes (death, motility disturbances) ([7]; 100 µg treatment): moribund or dead within one hour
time to rapid fluke death ([7]; in vitro medication rate 10µg): 6 to 7 h
time to rapid fluke death ([7]; in vitro medication rate 25 µg): ≤ 4 h
time to rapid fluke death ([7]; in vitro medication rates of >50 µg): ≤ 1 h
concentrations with marked toxicity on the cell monolayer [8]: ≥ 2500 ng/mL
